One data set concerns Type 1 Interferon. The data set can be described thus: Cellular assay for altering IFN production in THP1 TREX1 KO cells. To be noted: THP1-Dual KO-TREX1 cells, 1 μM 5-aza-2′-deoxycytidine, five days; direction of effect per figure legend. It is filed as cell-based. On the procedure:
(§1) THP1-Dual™ KO-TREX1 cells were purchased from Invivogen (cat #thpd-kotrex). The THP1-Dual™ KO-TREX1 cells were cultured in RPMI 1640, 10% heat-inactivated fetal bovine serum, 25 mM HEPES, 10 μg/mL Blasticidin, and 100 μg/mL Zeocin. THP1-Dual™ KO-TREX1 cells were treated with a dose titration of test compound in the presence of 1 μM 5-aza-2′-deoxycytidine (Sigma, cat #189825). Type 1 Interferon and cell viability were assessed after five days of treatment.
Stock solution of test compound was prepared in DMSO followed by a three-fold dilution in DMSO. Additional 50× dilution was prepared in cell culture media for each dilution. 10 μL of diluted test compound was then added to a 384-well plate.
THP1-Dual™ KO-TREX1 cells were treated with 1 μM 5-aza-2′-deoxycytidine. The THP1-Dual™ KO-TREX1 cells (50 μL) were added to each well of the 384-well plate containing test compound titration at 10,000 cells/well. Cells were incubated at 37° C., 5% CO2 in a humidified incubator for five days. On day five, 20 μL of cell supernatant was transferred to a 384-well, white-walled plate, followed by addition to each well of 50 μL of QUANTI-LUC solution containing stabilizer. Luminescence was detected on a plate reader according to manufacturer's instructions. Percent inhibition of interferon was calculated using the following analysis: (Average DMSO−Sample)/(Average DMSO−Average 30 μM control reagent)*100. Percent induction of interferon was calculated using the following analysis: (Sample−Average DMSO)/(10 μM control reagent−Average DMSO)*100.

The nature of data set [1]: CellTiter-Glo cell viability in THP1-Dual KO-TREX1 cells. It is filed as cell-based. To be noted: human, 10 μM compound (highest dose), five days, read-out: CellTiter-Glo average inhibition (cell viability). On the procedure:
as §1
THP1-Dual™ KO-TREX1 cells were treated with 1 μM 5-aza-2′-deoxycytidine. The THP1-Dual™ KO-TREX1 cells (50 μL) were added to each well of the 384-well plate containing test compound titration at 10,000 cells/well. Cells were incubated at 37° C., 5% CO2 in a humidified incubator for five days. […] Luminescence was detected on a plate reader according to manufacturer's instructions. […] Percent induction of interferon was calculated using the following analysis: (Sample−Average DMSO)/(10 μM control reagent−Average DMSO)*100.
The remaining cells were assessed for cell viability by adding 30 μl of CellTiter-Glo (Promega, G9683) solution to each well, and placed on a shaker for 10 minutes at room temperature. Luminescence was detected on a plate reader, according to manufacturer's instructions. Percent inhibition of cell viability using CellTiter-Glo was calculated using the following analysis. […]

In data set [2] the target is T1, LINE1 reverse transcriptase (Homo sapiens, UniProt O00370). In words: Transient artificial-intron Cis LINE1 reporter assay. On the set-up: expressed in transfected cells. The data set is classed as cell-based. On the procedure:
Intron-disrupted Firefly luciferase (FLuc) expression cassettes were generated as described by Xie, Y. et al. “Characterization of L1 retrotransposition with high-throughput dual-luciferase assays,” Nucleic Acid Res. (2011) Vol. 39, No. 3, e16. In addition, the plasmid contained an intact Renilla luciferase (RLuc) expression cassette on the vector backbone, in order to normalize transfection efficiency and measure potential cell toxicity.
HEK 293 cells were seeded in 96-well plates at 1,000 cells/well in 55 μL and grown for 24 hours. Cells were transfected with FuGeneHD (Promega) following the manufacturer's protocol. Each well received 0.133 ng plasmid, 0.4 μL FuGeneHD reagent, and 4.5 μL GlutaMAX-I-supplemented Opti-MEM I reduced-serum medium (Invitrogen). Cells were simultaneously treated with test compound serially diluted starting at 100 μM in a 3-fold dilution dose response.
Luminescence was measured using the Dual-Glo Luciferase Assay System (Promega) following the manufacturer's instructions. The ratio between FLuc and RLuc gene expression (each of which was normalized against its expression in a control well without test compound) was used to report LINE1 activity.

Data set [3] has as its target T1, LINE1 reverse transcriptase. In words: Stable artificial-intron Cis LINE1 reporter assay. The arrangement: expressed in transfected cells; host or cells: HeLa Tet-On 3G (Takara, cat no 631183). The data set is classed as cell-based. The text has this:
A stable HeLa Tet-On 3G (Takara, cat no 631183) cell line expressing a bi-directional inducible LINE1 construct was generated as described in Xie, Y. et al. “Cell division promotes efficient retrotransposition in a stable L1 reporter cell line,” Mobile DNA (2013) 4:10. Single cell clones were screened for high Luciferase expression and the highest expression Firefly expressing clone was chosen for compound testing.
Test compounds were serially diluted in DMSO and spotted in 96-well plates. Subsequently the HeLa L1 artificial-intron reporter cells were plated into the compound-containing wells (8,000 cells/well), and the cells were induced for reporter expression with doxycycline (Sigma cat no D9891) at a final concentration of 500 ng/mL. Luminescence was measured 72 h after plating using the Dual-Glo Luciferase Assay System (Promega cat no E2940) following the manufacturer's instructions. The Firefly Luciferase activity (normalized against its activity in a control well without test compound) was used to report LINE1 activity.

The target of data set [4] is T2, recombinant MBP-tagged LINE1 protein (238-1061) (Homo sapiens, UniProt O00370).
T2 construct: recombinant MBP-tagged LINE1 protein (238-1061); made in house
The data set can be described thus: Homogeneous time-resolved fluorescence (HTRF) LINE1 RT assay. It is filed as biochemical. To be noted: tetra(sodium) salt; 25° C., 60 minutes. On the procedure:
The LINE1 reverse transcriptase homogeneous time-resolved fluorescence (HTRF) assay was performed with recombinant MBP-tagged LINE1 protein (238-1061) (generated and purified according to procedures in Dai L. et al. BMC Biochemistry 2011; 12:18) in a 384-well format. Test compound was serially diluted in DMSO and further diluted in the assay buffer (50 mM Tris-HCl, 50 mM KCl, 10 mM MgCl2, 10 mM DTT, pH 8.1) to achieve a final DMSO concentration of 1%. The serially diluted compound was mixed with 64 ng/well of LINE1 enzyme, 5 nM of pre-annealed template/biotin-primer pair (synthesized at Generay Biotechnology), 10 nM of Fluorescein-12-dATP fluorescent probe (Perkin Elmer), and 1 μM dGTP/dCTP/dTTP (Thermo Fisher Scientific) in the assay buffer. The template/biotin-primer sequences were as follows:
After incubating at 25° C. for 60 minutes, the detection reagent (20 mM EDTA with streptavidin-terbium cryptate, Cisbio Bioassay) in the PPI buffer (Cisbio Bioassay) was added, and the mixture was incubated at 25° C. for 30 minutes. At the end of the incubation, fluorescence was read at ex/em=337/485 nm and ex/em=337/520 nm on an Envision 2104 plate reader (Perkin Elmer). The fluorescence ratio at 520/485 nm was used for the calculation. […] The IC50 was calculated by fitting the compound dose inhibition curve with a 4-parameter non-linear regression equation.

For data set [5], the target named is T3, HERV-K reverse transcriptase (2-596)-8His protein (Homo sapiens, UniProt V9H0F6).
T3 construct: fused on or other part: C-terminal 8His tag
In words: Homogeneous time-resolved fluorescence (HTRF) HERV-K RT assay. The data set is classed as biochemical. To be noted: tetra(sodium) salt; 25° C., 30 minutes. On the procedure:
The HERV-K reverse transcriptase homogeneous time-resolved fluorescence (HTRF) assay was performed in a 384-well format with HERV-K reverse transcriptase (2-596)-8His protein. Baculoviruses were created using Bac-to-Bac technology (Invitrogen). pFastBac donor plasmids containing HERV-K reverse transcriptase sequence (NCBI GenBank number AAC63291.1, J. Virology (1999) Vol. 73, No. 3, pp. 2365-2375) were transformed into DH10 Bac cells following the manufacturer's instructions. Recombinant bacmids were then isolated clonally and transfected into SF9 cells with lipofectin. HERV-K reverse transcriptase was expressed in the SF9 insect cells and then purified using immobilized metal affinity chromatography (IMAC) followed by size-exclusion chromatography (SEC). […]
After incubating at 25° C. for 30 minutes, the detection reagent 20 mM EDTA with streptavidin-terbium cryptate (Cisbio Bioassay) in the PPI buffer (Cisbio Bioassay) was added, and the mixture was incubated at 25° C. for 60 minutes. At the end of the incubation, fluorescence was read at ex/em=337/485 nm and ex/em=337/520 nm on an Envision 2104 plate reader (Perkin Elmer). The fluorescence ratio at 520/485 nm was used for the calculation. […] The IC50 was calculated by fitting the compound dose inhibition curve with a 4-parameter non-linear regression equation.

Where [6] appears, read: HEK 293 cells, FLuc/RLuc ratio, transient LINE1 reporter, read-out: IC50.
Setting [7] is: HeLa Tet-On 3G L1 reporter cells, doxycycline 500 ng/mL, 72 h, Firefly luciferase, read-out: IC50.
[8] abbreviates: HEK 293 cells, transient LINE1 reporter, no detectable IC50 when tested at concentrations up to 100 μM, read-out: IC50.

T3 sequence (V9H0F6 entry or part of it): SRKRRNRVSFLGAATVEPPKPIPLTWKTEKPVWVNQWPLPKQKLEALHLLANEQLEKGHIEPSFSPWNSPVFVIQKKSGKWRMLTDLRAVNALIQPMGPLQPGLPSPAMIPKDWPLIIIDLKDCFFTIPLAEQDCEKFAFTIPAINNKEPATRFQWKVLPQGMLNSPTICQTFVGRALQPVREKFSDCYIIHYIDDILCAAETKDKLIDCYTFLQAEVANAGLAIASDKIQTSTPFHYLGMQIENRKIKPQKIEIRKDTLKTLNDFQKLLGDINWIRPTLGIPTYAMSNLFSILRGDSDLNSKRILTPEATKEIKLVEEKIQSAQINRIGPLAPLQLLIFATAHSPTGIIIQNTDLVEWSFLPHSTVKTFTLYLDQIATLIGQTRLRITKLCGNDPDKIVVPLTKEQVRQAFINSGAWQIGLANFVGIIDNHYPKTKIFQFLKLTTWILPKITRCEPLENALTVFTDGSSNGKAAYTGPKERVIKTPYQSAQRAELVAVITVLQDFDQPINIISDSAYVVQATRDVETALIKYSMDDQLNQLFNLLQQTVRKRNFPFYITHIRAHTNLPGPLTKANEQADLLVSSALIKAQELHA

As for `CC(C)OC(=O)[C@H](C)N[P@](=O)(CO[C@H](C)Cn1cnc2c(N)ncnc21)Oc1ccccc1` [Compound I-1], in the data set with Type 1 Interferon, the “changes in IFN levels (inhibition or induction of IFN)” value is reported as “inhibition of IFN”. For the same molecule, the cytotoxicity at 5 days, 10 μM in data set [1] worked out at 57%. In addition, the IC50 in data set [2] and in data set [3] was below 50 nM each time.

Regarding `C[C@H](Cn1cnc2c(N)ncnc21)OCP(=O)(O)O` [Compound V-1], the “changes in IFN levels (inhibition or induction of IFN)” value in the data set with Type 1 Interferon is reported as “inhibition of IFN”. Besides, the IC50 in data set [2] (setting [6]) and in data set [3] (setting [7]) was above 500 nM each time.

As to `Cc1cn([C@H]2C[C@H](N=[N+]=[N-])[C@@H](CO)O2)c(=O)[nH]c1=O` [AZT (zidovudine), zidovudine, reference compound], the IC50 is above 100000 nM in data set [2] (setting [8]) and above 500 nM in data set [3] (setting [7]).

On to `Nc1ccn([C@H]2CO[C@@H](CO)S2)c(=O)n1` [apricitabine], for which the IC50 in data set [2] (setting [8]) was above 100000 nM.

Take `C[C@H](Cn1cnc2c(N)ncnc21)OCP(=O)(O)OP(=O)(O)OP(=O)(O)O` [drawing 1227]: the IC50 in data set [4] is 71 nM.

For the molecule `CC(C)OC(=O)C(C)(C)N[P@@](=O)(CO[C@H](C)Cn1cnc2c(N)ncnc21)Oc1ccccc1` [Compound I-21], in the data set with Type 1 Interferon, the “changes in IFN levels (inhibition or induction of IFN)” value is “induction of IFN”. Besides, the IC50 in data set [3] (setting [7]) is 50 to 500 nM.

Take `C[C@H](Cn1cnc2c(N)ncnc21)OCP(=O)(O)OP(=O)(O)OP(=O)(O)O` [drawing 1228]: in data set [5], the IC50 came to 20 nM.

As to `CC(C)OC(=O)[C@H](C)NP(=O)(CO[C@H](C)Cc1ccc2c(N)ncnn12)Oc1ccccc1` (some centres unmarked) [Compound I-115], in the data set on Type 1 Interferon, the “changes in IFN levels (inhibition or induction of IFN)” value is on record as “induction of IFN”. For the same molecule, in data set [3] (setting [7]), the half-inhibitory concentration (IC50) fell in the range of 50 to 500 nM.

Turning to `C[C@H](Cc1ccc2c(N)ncnn12)OCP(=O)(O)O` [Compound V-105], in data set [3] (setting [7]), the IC50 was above 500 nM.

In the case of `CC(C)OC(=O)OCOP(=O)(CO[C@H](C)Cn1cnc2c(N)ncnc21)OCOC(=O)OC(C)C` [Compound V-7], the figures for the IC50 in data set [2] (setting [6]) and in data set [3] (setting [7]) were below 50 nM and 50 to 500 nM, respectively.

On to `Nc1ccn([C@@H]2CS[C@H](CO)O2)c(=O)n1` [lamivudine (3TC), lamivudine, reference compound], for which the values for the IC50 in data set [2] (setting [8]) and in data set [3] (setting [7]) were above 100000 nM and above 500 nM, respectively.

On to `CC(C)OC(=O)C(C)(C)N[P@](=O)(CO[C@H](C)Cn1cnc2c(N)ncnc21)Oc1ccccc1` [Compound I-20], for which the “changes in IFN levels (inhibition or induction of IFN)” value in the data set with Type 1 Interferon is “inhibition of IFN”. Further, the cytotoxicity at 5 days, 10 μM in data set [1] is 65%. Also, the IC50 in data set [3] (setting [7]) is below 50 nM.

As for `CCCCCCCCCCCCCCCCOCCCOP(=O)(O)CO[C@H](C)Cn1cnc2c(N)ncnc21` [VI-1], the “changes in IFN levels (inhibition or induction of IFN)” value in the data set with Type 1 Interferon was “induction of IFN”. In addition, the half-inhibitory concentration (IC50) in data set [3] (setting [7]) fell in the range of 50 to 500 nM.

In the case of `Nc1nc(=O)c2ncn([C@@H]3C[C@H](CO)[C@H]3CO)c2[nH]1` [lobucavir, reference compound], the IC50 in data set [2] (setting [8]) was above 100000 nM; in data set [3] (setting [7]), above 500 nM.

For `CC(C)OC(=O)OCOP(=O)(CO[C@H](C)Cc1ccc2c(N)ncnn12)OCOC(=O)OC(C)C` [Compound V-106], in data set [3] (setting [7]), the IC50 is above 500 nM.

For the origin of these results see US20250268925A1, “METHODS OF TREATING MEDICAL CONDITIONS AND INHIBITING LINE1 REVERSE TRANSCRIPTASE USING A SUBSTITUTED ADENINYL-PROPYLOXY PHOSPHONIC ACID OR RELATED COMPOUND” (ROME THERAPEUTICS, INC., priority 2021, published 2025).
